Data set [1] concerns Aphidius rhopalosiphi. Nature of the data set: LR50; higher = less toxic. To be noted: not reported; mortality.
In data set [2] the test system is Orius insidiosus. Nature of the data set: LR50; higher = less toxic. The note with it: not reported; mortality.
Data set [3] relates to Apis mellifera. The note with it: acute, duration: 48 hours, mortality.
Data set [4] relates to Plant. The note with it: not reported; no effects.
Data set [5] concerns Rattus norvegicus. The note with it: for NOAEL: reproduction developmental.
In data set [6] the test system is Tagia sp. To be noted: for LC50: acute, mortality.
Data set [7] relates to Anas platyrhynchos. To be noted: for LC50: short-term, oral, feed, mortality.
Data set [8] deals with Lepomis macrochirus. To be noted: acute; duration: 96 hours; mortality.
Data set [9] has as its system Colinus virginianus. To be noted: acute, oral, mortality.
Data set [10] concerns Daphnia magna. The note with it: chronic/long-term; duration: 21 days; reproduction.

The values below come from EPA's ToxValDB 9.5 (doi:10.2903/j.efsa.2006.55r).

Each structure is given as a SMILES string. In brackets after ≈: the same amount, converted by molar mass. Bounds are passed on as bounds.

By LOAEL is commonly meant the lowest tested level that showed an adverse finding. Broadly, the NOAEL is the highest tested level that showed no adverse finding.

For the compound `CSC(C)=NOC(=O)N(C)SN(C)C(=O)ON=C(C)SC` [Thiodicarb], the LR50 in data set [1] is 0.4 g/ha; in data set [2], 25.4 g/ha. Further, the LD50 in data set [3] (dermal) was found to be 3.1 µg/piece; in [3] (oral, unspecified), 0.153 µg/piece; in [5] (acute, oral, mortality), 50 mg/kg-day; in data set [9], 2020 mg/kg-day. The compound further had an LEL in data set [4] of 950 g/ha. This compound showed an LOAEL in [5] (acute, oral, gavage, neurology) of under 5 mg/kg-day. Also, the NOAEL in [5] (body weight) was found to be 1 mg/kg-day; in data set [5] (oral, diet, mortality), 7 mg/kg-day; in data set [5] (reproduction), 84 mg/kg-day. In addition, the LC50 in data set [6] is 38.5 mg/kg; in data set [7], over 5620 mg/kg; in data set [8], 1.4 mg/L (≈ 3.95 µM); in data set [9] (diet) it was over 5620 mg/kg. Besides, the values for the NOEC in data set [6] (chronic/long-term) and in data set [7] (reproductive) were 2 mg/kg and 500 mg/kg, respectively.

For `CNC(=O)ON=C(C)SC` [Methomyl], the figures for the LC50 in data set [6] (duration: 14 days), in data set [7] and in data set [8] were 19 mg/kg, 658 mg/kg-day and 0.62 mg/L (≈ 3.82 µM), respectively. The compound also had an LD50 in data set [9] of 24.2 mg/kg-day. This compound gave an NOEC in data set [10] of 0.0016 mg/L.
